Publication PMC12040169 (PLOS Biology, 2025)

Assay: in vitro
Settings: human, hela cells, % viability

Row | SMILES | viability at 28.5 h, 10 µM [%]
1 | O=C(CCCn1cccn1)N1CCCN(Cc2ccc(F)cc2)CC1 [CBK304641] | 99.7
2 | O=C(NCCC(=O)N1CCCCC1)c1cccc(OCc2cscn2)c1 [CBK306384] | 98.5
3 | O=C(CSc1ccccn1)Nc1ccc(C(=O)O)cc1 [CBK286605] | 87.2
4 | Cc1cccn2cc(CNC(=O)C(C)(C)C)nc12 [CBK304348] | 83.9
5 | O=C(Nc1ccc(OCc2nc3ccccc3s2)cc1)c1cccc(I)c1 [CBK267843] | 119
6 | CCn1c(=O)c2c(cnn2C)c2ccccc21 [CBK017345] | 81.3
7 | CC(C)NC(=O)CN(CCO)Cc1cc(Br)ccc1F [CBK304944] | 90.7
8 | Cc1cccc(OC(C)C(=O)Nc2ccc(S(=O)(=O)N3CCOCC3)cc2)c1 (stereo not drawn) [CBK269609] | 106
9 | Cc1ccccc1CN1CC[C@@H]2[C@H](C1)[C@@H](c1ccc(F)cc1)CN2C(=O)c1cccs1 [CBK285546] | 86.8
10 | CCCc1c(C(=O)N2CCN(c3cnccn3)CC2)cnn1C [CBK305962] | 99
11 | COc1ccc(-c2cncc(C3CN(Cc4ccc(C)cc4OC)CCO3)n2)cc1 (stereo not drawn) [CBK286100] | 91.8
12 | O=S(=O)(Cc1ccccc1)NCc1ccccn1 [CBK262241] | 96.2
13 | CCN1CCCC1CNC(=O)c1cc([N+](=O)[O-])c(N(C)C)cc1OC (stereo not drawn) [CBK262595] | 95.8
14 | CCOC(=O)N1CCN(Cn2nc(COc3ccccc3)n(C)c2=S)CC1 [CBK265148] | 97.4
15 | O=C(NCCc1ccccc1)c1cc(Br)cnc1NCCCn1ccnc1 [CBK076421] | 103
16 | CCC(C)NC(=O)Cn1c(C2CCOCC2)cc2cccnc21 (stereo not drawn) [CBK285390] | 104
17 | COCCNc1nc(-c2ccccc2)ccc1C(=O)N(C)CCN(C)C [CBK105913] | 99.3
18 | O=C1N[C@@H](Cc2ccc(F)cc2)C(=O)N2CCN(C(=O)N3CCOCC3)C[C@H]12 [CBK289603] | 109
19 | Cc1ccc(C(=O)O)cc1NC(=O)c1ncn(-c2ccccc2)n1 [CBK269181] | 114
20 | COc1cccc(CC(=O)NCC(c2cccs2)N2CCOCC2)c1 (stereo not drawn) [CBK305621] | 95.9
21 | O=C(CSc1nc2ccccc2o1)N1c2ccccc2Sc2ccc(C(F)(F)F)cc21 [CBK018044] | 91.1

Row | SMILES | viability at 28.5 h, 10 µM [%]
22 | O=C(NCc1cccs1)c1cncc(-c2ccc(C(=O)N3CCOCC3)cc2)c1 [CBK158617] | 87.4
23 | Cc1cc(N2CCCC2=O)cc(C)c1S(N)(=O)=O [CBK288458] | 89.9
24 | COc1nccnc1-c1ccc(Cl)c(Cl)c1 [CBK107110] | 98.7
25 | C=CCn1c(Cc2csc(NC(=O)CCc3nc4ccccc4c(=O)[nH]3)n2)n[nH]c1=S [CBK297888] | 88.8
26 | O=C(Nc1ccc(S(=O)(=O)N2CCCCC2)cc1)c1ccc(NS(=O)(=O)c2ccccc2)cc1 [CBK268348] | 88.3
27 | COc1cccc(C(=O)Oc2ccc3c(=O)c(-c4nc5ccccc5s4)c(C)oc3c2)c1 [CBK265540] | 103
28 | Cc1ccc(C)n1-c1ccc(O)c(C(=O)O)c1 [CBK116381] | 94.2
29 | Cc1ccc(-c2nnc3ccc(SCC(=O)NC4CCCC4)nn23)cc1 [CBK287523] | 88.8
30 | COc1ccc(Cl)cc1S(=O)(=O)N1CCC(C(=O)O)CC1 [CBK269607] | 79.1
31 | O=C(NCCc1c[nH]c2ccccc12)C(=O)Nc1ccncc1 [CBK287754] | 101
32 | CS(=O)(=O)N1CCN(c2ccccc2NC(=O)c2cccnc2)CC1 [CBK267604] | 119
33 | O=C(Cc1ccsc1)N1CCCC2(CCN(Cc3ccccc3)C2)C1 (stereo not drawn) [CBK136868] | 86.7
34 | CN(C)S(=O)(=O)Nc1cccc2cc[nH]c12 [CBK159505] | 92.8
35 | Cc1csc(C(Cc2cccs2)NC(=O)CN2CCCC2=O)n1 (stereo not drawn) [CBK284691] | 109
36 | Cc1ccccc1NC(=O)c1ccc(Br)o1 [CBK107152] | 88.2
37 | CCCC/C(=N/N=C(\CCCC)c1ccncc1)c1ccncc1 [CBK016521] | 120
38 | Cc1cnn(-c2cc(Oc3ccccc3)ncn2)c1 [CBK287276] | 114
39 | CN1CCN(C)C(COc2nc3cc(Cl)c(Cl)cc3nc2N2CCCC2)C1 (stereo not drawn) [CBK115294] | 92
40 | O=C1/C(=C/c2ccc(OCc3cccc4ccccc34)cc2)SC(=S)N1Cc1cccnc1 [CBK264669] | 95.6
41 | COc1ccc2c(c1)c(C)c(C(=O)NC(C)Cc1ccccn1)n2C (stereo not drawn) [CBK281425] | 98.6
42 | CN1CCN(C(=O)CC[C@@H]2CNC(=O)[C@@H]3C[C@H](NC(=O)c4cccc(F)c4)CN23)CC1 [CBK289015] | 92.2

Row | SMILES | viability at 28.5 h, 10 µM [%]
43 | OC(CNc1nccnc1-c1cccc(C(F)(F)F)c1)COc1ccccc1 (stereo not drawn) [CBK037010] | 89.9
44 | NS(=O)(=O)c1ccc(CNS(=O)(=O)Cc2ccccc2)cc1 [CBK228048] | 87
45 | Cn1cc(C(c2ccc(OCC(=O)O)cc2)c2cn(C)c3ccccc23)c2ccccc21 [CBK266403] | 94.5
46 | Cc1ccc(CN(CCN(C)C)Cc2c(C)nc3sccn23)o1 [CBK283229] | 116
47 | COc1ccc(-c2cc(C(=O)OCC(=O)c3cccc4ccccc34)c3ccccc3n2)cc1 [CBK265513] | 96.7
48 | c1ccc(-c2ccc(-c3cc(N4CCN(CCN5CCCC5)CC4)ncn3)cc2)cc1 [CBK091165] | 99
49 | O=C(NC(C(=O)O)C12CC3CC(CC(C3)C1)C2)c1ccc([N+](=O)[O-])cc1 (stereo not drawn) [CBK261405] | 94.7
50 | NC(=O)C1CCN(C(=S)NC2CC3C=CC2C3)CC1 (stereo not drawn) [CBK085970] | 97.4
51 | CCC(NC(=O)C1(Cn2ccnc2)CC1)c1ncccc1C (stereo not drawn) [CBK307046] | 119
52 | CN(C)S(=O)(=O)c1ccc(C(=O)Nc2ccc(N3CCOCC3)c(Cl)c2)cc1 [CBK267383] | 87.7
53 | COC(=O)c1ccc(N2CCN(Cc3nc(C)no3)C(C)C2)cc1 (stereo not drawn) [CBK305998] | 92.3
54 | Cn1ccnc1C1(O)CC2CCC(C1)N2C(=O)c1cccc(F)c1 (stereo not drawn) [CBK284089] | 93.9
55 | O=C(Nc1nnc(-c2ccccn2)o1)c1cc(Cl)ccc1Cl [CBK287429] | 96.9
56 | O=C(O)c1cccc(Cn2c(C3CC3)n[nH]c2=S)c1 [CBK288401] | 87.1
57 | COc1ccc(C(=O)Nc2ccccc2)cc1S(=O)(=O)Nc1cccnc1 [CBK266771] | 94.4
58 | CC(=O)NC[C@H]1CN(c2ccc3c(c2)CCN(C(=O)Cc2ccccc2)CC3)C(=O)O1 [CBK018499] | 111
59 | O=C(c1cccs1)N1CCCN(Cc2cn3ccccc3n2)CC1 [CBK305304] | 102
60 | CC1CC(C)CN(C(=O)c2ccccc2NC(=O)C2CC(=O)Nc3ccccc32)C1 (stereo not drawn) [CBK297760] | 81.8
61 | COc1ccc(C(=O)NC(NC(=S)Nc2cccc3cccnc23)C(Cl)(Cl)Cl)cc1 (stereo not drawn) [CBK261028] | 94.6
62 | CCOC(=O)CN(C)Cc1ccccc1Br [CBK261891] | 108
63 | Cc1cccc2c1[nH]c1nc(N/N=C\c3ccc(-c4cccc([N+](=O)[O-])c4)o3)nnc12 [CBK262373] | 96
